Data reported in US20090326003A1, “PYRAZOLO (3, 4-B) PYRIDINE DERIVATIVES AS PDE4 INHIBITORS” (priority 2006, published 2009).

These compounds were tested on TNF-α production in human PBMC (peripheral blood mononuclear cells) (assay: Inhibition of TNF-alpha production in human PBMC (MSD technology)). Settings: inhibition of LPS-stimulated TNF-α production in human PBMC; measured and/or mean; read-out: PBMC pIC50 (MSD assay) (converted).
Assay type: cell-based
Protocol: A 96-well plate (96 MicroWell™ Plates Nunclon™Δ-High Flange Design, Fisher Scientific UK, Bishop Meadow Road, Loughborough LE 11 5 RG, Leicestershire, UK) is prepared by initially adding to column 1 ca. 10 mM of test compound dissolved in DMSO. […] The compound is further diluted with DMSO into columns 2 to 9 by 8 successive 3fold dilutions using the Biomek® FX Laboratory Automation Workstation (Beckman Coulter, Inc., 4300 N. Harbor Boulevard, P.O. Box 3100, Fullerton, Calif. 92834-3100 USA). Column 10 is used as a DMSO negative control (High Signal, 0% response), whilst column 11, which contains 10 mM of the PDE4 inhibitor roflumilast, is used as a positive control (Low Signal, 100% response). About 1 μl (about 1 ul) of compound is transferred to the compound plate using the Biomek® FX.
PBMC cells (peripheral blood mononuclear cells) are prepared from heparinised human blood (using 1% v/v Heparin Sodium 10001 U/ml Endotoxin Free, Leo Laboratories Ltd., Cashel Road, Dublin 12. Ireland, Cat No: PL0043/0149) from normal volunteers using the Accuspin™ System-Histopaque®-1077 essentially (Sigma-Aldrich Company Ltd., The Old Brickyard New Rd, Gillingham Dorset SP8 4XT). About 20 ml of blood is overlaid onto 15 ml Histopaque® in Accuspin™ tubes. The tube is then centrifuged at about 800 g for ca. 20 minutes. The cells are collected from the interface, washed by centrifugation (ca. 1300 g, ca. 10 minutes) and resuspended in RPMI1640 medium (Low endotoxin RPMI1640 medium, Cat No: 31870-025, Invitrogen Corporation Invitrogen Ltd, 3 Fountain Drive, Inchinnan Business Park, Paisley PA4 9RF, UK) containing 10% foetal calf serum, 1% L-glutamine (Invitrogen Corporation, Cat No: 25030024) and 1% penicillin/streptomycin (Invitrogen Corporation, Cat No: 15140-122). Viable cells are counted by trypan blue staining and diluted to 1×10^6 viable cells/ml. About 50 μl (about 50 ul) of diluted cells and about 75 μl (about 75 ul) of LPS (ca. 1 ng/ml final; Sigma Cat No: L-6386) are added to the compound plate, which is then incubated at 37° C., 5% CO2, for 20 hours.
The supernatant is removed and the concentrations of TNF-α are determined by electrochemiluminescence assay using the Meso Scale Discovery (MSD) technology (Meso Scale Discovery, 9238 Gaither Road, Gaithersburg, Md. 20877, USA). See the “TNF-α (TNF-alpha) MSD Assay” described below for typical details.
Using the Biomek FX, 25 μl (25 ul) of MSD Human Serum Cytokine Assay Diluent (Meso Scale Discovery, 9238 Gaither Road, Gaithersburg, Md. 20877) is added to a 96-well High-Bind MSD plate pre-coated with anti-hTNF alpha capture antibody (MA6000) and then incubated for 24 hours at 4° C. to prevent non-specific binding. […]
For the PBMC assay, about 20 μl (ul) of diluted sulfo-TAG antibody (ca. 1 μg/ml final) is added to each well, and the plates/wells are shaken at room temperature for 2 hours. Finally, about 90 μl (ul) of MSD Read Buffer P (diluted to 2.5 times with distilled water) is added and the plates are read on a MSD Sector 6000.
Data analysis is performed with ActivityBase/XC50 module (ID Business Solutions Ltd., 2 Occam Court, Surrey Research Park, Guildford, Surrey, GU2 7QB UK). Data are normalized and expressed as % inhibition using the formula 100*((U-C1)/(C2-C1)) where U is the unknown value, C1 is the average of the high signal (0%) control wells (column 10), and C2 is the average of the low signal (100%) control wells (column 11). […]

`CCc1nc2c(cnn2CC)c(NC2CCOCC2)c1CNC(=O)c1ccc(-c2ccc(C(=O)NCc3c(CC)nc4c(cnn4CC)c3NC3CCOCC3)cc2)cc1` [Example 23, N,N′-bis{[1,6-diethyl-4-(tetrahydro-2H-pyran-4-ylamino)-1H-pyrazolo[3,4-b]pyridin-5-yl]methyl}-4,4′-biphenyldicarboxamide] was tested. Which IC50 did it give?
The IC50 was about 0.126 nM.

`CCc1nc2c(cnn2CC)c(NC2CCOCC2)c1CNC(=O)c1ccc(C(=O)NCc2c(CC)nc3c(cnn3CC)c2NC2CCOCC2)o1` [Example 35, N,N′-bis{[1,6-diethyl-4-(tetrahydro-2H-pyran-4-ylamino)-1H-pyrazolo[3,4-b]pyridin-5-yl]methyl}-2,5furandicarboxamide] was tested. Which IC50 did it give?
Its IC50 is about 0.1 nM.

With `CCn1ncc2c(NC3CCOCC3)c(CNC(=O)c3cccc(-c4cccc(C(=O)NCc5c(C)nc6c(cnn6CC)c5NC5CCOCC5)c4)c3)c(C)nc21` [Example 29, N,N′-bis{[1-ethyl-6-methyl-4-(tetrahydro-2H-pyran-4-ylamino)-1H-pyrazolo[3,4-b]pyridin-5-yl]methyl}-3,3′-biphenyldicarboxamide] as the compound, how does the IC50 read?
Its IC50 is about 0.794 nM.
